Assay results reported in ChEMBL document CHEMBL2321873, “1-(4-Phenylpiperazin-1-yl)-2-(1H-pyrazol-1-yl)ethanones as novel CCR1 antagonists” (Bioorg Med Chem Lett, 2013).

How the values were obtained:
[1] = Stability of the compound at pH 7.4; assay type: physicochemical; details: buffer
[2] = Half life in Sprague-Dawley rat at 0.5 mg/kg, iv; assay type: ADME, organism-based; set-up: dose 0.5 mg/kg, route intravenous; details: in vivo
[3] = Oral bioavailability in Sprague-Dawley rat at 5 mg/kg; assay type: ADME, organism-based; details: in vivo
[4] = Clearance in Sprague-Dawley rat at 0.5 mg/kg, iv; assay type: ADME, organism-based; set-up: dose 0.5 mg/kg, route intravenous; details: in vivo

| Stability [1] | half-life [2] [h] | bioavailability [3] [%] | clearance [4] [mL/min/kg] | SMILES |
| --- | --- | --- | --- | --- |
| Unstable | – | – | – | COc1cc(N2CCN(C(=O)Cn3nc(C(F)(F)F)c(Cl)c3C)[C@H](CO)C2)ccc1Cl |
| – | 1.9 | 10 | 23 | Cc1c(Cl)c(C(F)(F)F)nn1CC(=O)N1CCN(c2ccc(F)cc2)CC1 |
